From the supplement of paper PMC10627819

How the values were obtained:
S. aureus DSM 20231 [1] = assay: Bliss interaction score (quartile over a dose matrix) (fitness difference); higher = more antagonism (negative = synergy)
Outline: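 Values were capped at 1 after dividing OD595 at stationary-phase entry by the plate's robust no-drug mean. This ratio is fitness, and single-drug fitness was inferred from the combination data. The Bliss score is observed minus product-expected fitness, given as quartiles over technical, biological and donor/recipient replicates.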

B. subtilis 168 = assay: fitness (endpoint OD595 vs no drug) (fraction); higher = more growth
Outline: (§1)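 Volumes were 30 µl per well, or 55 µl for S. pneumoniae, in 384-well plates inoculated at OD595 0.01. Media were TSB, LB Lennox or CY at 37 °C, and OD595 was read every 30 min for 14 h with first-reading background subtraction. Fitness is the ratio of optical density at stationary-phase entry to the robust mean of no-drug controls. That ratio is capped at 1.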

S. aureus DSM 20231 [2] = assay: as above
Outline: as §1

S. aureus Newman = assay: as above
Outline: as §1
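Throughout, for Bliss interaction score (quartile over a dose matrix): first quartile when negative (synergy) and third quartile when positive (antagonism).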

CCC[C@@H]1C[C@@H](C(=O)N[C@@H]([C@H]2O[C@H](SC)[C@H](O)[C@@H](O)[C@H]2O)[C@H](C)Cl)N(C)C1 [Clindamycin] + C[C@H]1C[C@@H]2[C@H]([C@@H](O)C[C@@]3(C)[C@H]2CC[C@]3(O)C(=O)CO)[C@@]2(C)C=CC(=O)C=C12 [Methylprednisolone]
Conditions | Bliss interaction score
S. aureus DSM 20231 [1] | -0.274

CCC[C@@H]1C[C@@H](C(=O)N[C@@H]([C@H]2O[C@H](SC)[C@H](O)[C@@H](O)[C@H]2O)[C@H](C)Cl)N(C)C1 [Clindamycin] + Cc1c(Cl)cccc1Nc1ccccc1C(=O)O [Tolfenamic]
Conditions | Bliss interaction score
S. aureus DSM 20231 [1] | -0.169

CCC[C@@H]1C[C@@H](C(=O)N[C@@H]([C@H]2O[C@H](SC)[C@H](O)[C@@H](O)[C@H]2O)[C@H](C)Cl)N(C)C1 [Clindamycin] + Cc1ccc(C(C)C)c(O)c1 [Thymol]
Conditions | Bliss interaction score
S. aureus DSM 20231 [1] | -0.271

CCC[C@@H]1C[C@@H](C(=O)N[C@@H]([C@H]2O[C@H](SC)[C@H](O)[C@@H](O)[C@H]2O)[C@H](C)Cl)N(C)C1 [Clindamycin] + Nc1ccc(O)c(C(=O)O)c1 [Mesalamine]
Conditions | Bliss interaction score
S. aureus DSM 20231 [1] | -0.165

CCC[C@@H]1C[C@@H](C(=O)N[C@@H]([C@H]2O[C@H](SC)[C@H](O)[C@@H](O)[C@H]2O)[C@H](C)Cl)N(C)C1 [Clindamycin] + O=C(O)Cc1cc(I)c(Oc2ccc(O)c(I)c2)c(I)c1 [Tiratricol]
Conditions | Bliss interaction score
S. aureus DSM 20231 [1] | 0.278

N[C@@H]1CONC1=O [Cycloserine D] + Cc1onc(-c2ccccc2)c1C(=O)N[C@@H]1C(=O)N2[C@@H]1SC(C)(C)[C@@H]2C(=O)O [Oxacillin]
fitness
Conditions | first compound 0.125 µg/mL | first compound 0.25 µg/mL | first compound 0.375 µg/mL | first compound 0.5 µg/mL | first compound 0.75 µg/mL | first compound 1.5 µg/mL
B. subtilis 168, partner 0.002 µg/mL | 0.973 | 0.926 | – | 0.906 | – | –
B. subtilis 168, partner 0.004 µg/mL | 0.966 | 0.887 | – | 0.9 | – | –
B. subtilis 168, partner 0.008 µg/mL | 0.936 | 0.892 | – | 0.907 | – | –
S. aureus DSM 20231 [2], partner 0.0156 µg/mL | – | – | 0.878 | – | 0.906 | 0.931
S. aureus DSM 20231 [2], partner 0.0312 µg/mL | – | – | 0.67 | – | 0.712 | 0.656
S. aureus DSM 20231 [2], partner 0.0625 µg/mL | – | – | 0.506 | – | 0.499 | 0.494
S. aureus Newman, partner 0.0156 µg/mL | – | – | 0.819 | – | 0.779 | 0.771
S. aureus Newman, partner 0.0312 µg/mL | – | – | 0.716 | – | 0.663 | 0.642
S. aureus Newman, partner 0.0625 µg/mL | – | – | 0.611 | – | 0.611 | 0.579

fitness, B. subtilis 168, one replicate
Conditions | partner 0.0078 µg/mL | partner 0.0155 µg/mL | partner 0.031 µg/mL | partner 0.075 µg/mL | partner 0.15 µg/mL | partner 0.3 µg/mL
first compound 0.125 µg/mL | 0.99 | 0.909 | 0.873 | 0.526 | 0.0465 | 0.0536
first compound 0.25 µg/mL | 0.937 | 0.966 | 0.88 | 0.596 | 0.0158 | 0.0367
first compound 0.5 µg/mL | 0.973 | ≥ 1 | 0.973 | 0.459 | 0.0287 | 0.0208

N[C@@H]1CONC1=O [Cycloserine D] + O=C(O[C@@H]1Cc2c(O)cc(O)cc2O[C@@H]1c1cc(O)c(O)c(O)c1)c1cc(O)c(O)c(O)c1 [EGCG]
fitness
Conditions | partner 6.25 µg/mL | partner 12.5 µg/mL | partner 25 µg/mL | partner 50 µg/mL
B. subtilis 168, first compound 0.125 µg/mL | 0.934 | 0.567 | – | –
B. subtilis 168, first compound 0.25 µg/mL | 0.898 | – | 0.289 | –
B. subtilis 168, first compound 0.5 µg/mL | 0.938 | 0.443 | – | –
S. aureus DSM 20231 [2], first compound 0.375 µg/mL | – | 0.785 | 0.784 | 0.776
S. aureus DSM 20231 [2], first compound 0.75 µg/mL | – | 0.73 | 0.772 | –
S. aureus DSM 20231 [2], first compound 1.5 µg/mL | – | 0.798 | 0.663 | –
S. aureus Newman, first compound 0.375 µg/mL | – | 0.77 | 0.765 | 0.691
S. aureus Newman, first compound 0.75 µg/mL | – | 0.805 | 0.821 | 0.697
S. aureus Newman, first compound 1.5 µg/mL | – | 0.851 | 0.779 | 0.706
